Measured values taken from the supplement of paper PMC6004109.

Experiments:
Conditions in all cases: temperature: 37 °C
[1] = tested on: Saccharomyces cerevisiae ZIM 2558 (RPMI); assay: Bliss independence sum of statistically significant ΔE (measured minus predicted growth inhibition) over checkerboard surface (fraction (sum of ΔE; 1 = 100%)); higher = more synergy
[2] = tested on: Saccharomyces cerevisiae ZIM 2247 (RPMI); assay: as above
[3] = tested on: Candida glabrata ZIM 2344 (RPMI); assay: as above
[4] = tested on: Candida glabrata ZIM 2365 (RPMI); assay: as above
[5] = tested on: Candida glabrata ZIM 2369 (RPMI); assay: as above
[6] = tested on: Candida glabrata ZIM 2382 (RPMI); assay: as above
[7] = tested on: Candida glabrata ZIM 2389 (RPMI); assay: as above
[8] = tested on: Candida glabrata ZIM 2385 (RPMI); assay: as above
[9] = tested on: Saccharomyces cerevisiae ZIM 2255 (RPMI); assay: as above
[10] = tested on: Saccharomyces cerevisiae ZIM 2260 (RPMI); assay: as above
[11] = tested on: Saccharomyces cerevisiae ZIM 2566 (RPMI); assay: as above
[12] = tested on: Saccharomyces cerevisiae ZIM 2269 (RPMI); assay: as above
[13] = tested on: Candida glabrata ZIM 2385 (RPMI); assay: FICI minimum (fractional inhibitory concentration index, Loewe) (dimensionless); higher = less synergy / more antagonism
Description: (§1)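 CLSI M27-A3 checkerboard broth microdilution of an immunomodulatory drug (or amoxicillin) combined with an antifungal against S. cerevisiae and C. glabrata isolates. Growth was read as OD600 after incubation at 37 °C (48 h for the reported MICs). Reported quantities are the FICI (Loewe: MIC50 for azoles and immunomodulators, MIC90 for AMB; ≤0.5 synergy, ≥4 antagonism), as minimum and maximum over the surface, and the Bliss-independence sum of statistically significant ΔE (positive = synergy). Clinical isolates were tested in RPMI; C. glabrata ATCC 2001 and its pdr1Δ mutant were tested in YPD.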

[14] = tested on: Saccharomyces cerevisiae ZIM 2260 (RPMI); assay: as above
Description: as §1

[15] = tested on: Saccharomyces cerevisiae ZIM 2558 (RPMI); assay: FICI maximum (fractional inhibitory concentration index, Loewe) (dimensionless); higher = less synergy / more antagonism
Description: as §1

[16] = tested on: Saccharomyces cerevisiae ZIM 2247 (RPMI); assay: as above
Description: as §1

[17] = tested on: Candida glabrata ZIM 2344 (RPMI); assay: as above
Description: as §1

[18] = tested on: Candida glabrata ZIM 2365 (RPMI); assay: as above
Description: as §1

[19] = tested on: Candida glabrata ZIM 2369 (RPMI); assay: as above
Description: as §1

[20] = tested on: Candida glabrata ZIM 2382 (RPMI); assay: as above
Description: as §1

[21] = tested on: Candida glabrata ZIM 2389 (RPMI); assay: as above
Description: as §1

[22] = tested on: Candida glabrata ZIM 2385 (RPMI); assay: as above
Description: as §1

[23] = tested on: Saccharomyces cerevisiae ZIM 2255 (RPMI); assay: as above
Description: as §1

[24] = tested on: Saccharomyces cerevisiae ZIM 2260 (RPMI); assay: as above
Description: as §1

[25] = tested on: Saccharomyces cerevisiae ZIM 2566 (RPMI); assay: as above
Description: as §1

[26] = tested on: Saccharomyces cerevisiae ZIM 2269 (RPMI); assay: as above
Description: as §1

Compound	Bliss independence sum [1]	Bliss independence sum [2]	Bliss independence sum [3]	Bliss independence sum [4]	Bliss independence sum [5]	Bliss independence sum [6]	Bliss independence sum [7]	Bliss independence sum [8]	Bliss independence sum [9]	Bliss independence sum [10]	Bliss independence sum [11]	Bliss independence sum [12]	FICI minimum [13]	FICI minimum [14]	FICI maximum [15]	FICI maximum [16]	FICI maximum [17]	FICI maximum [18]	FICI maximum [19]	FICI maximum [20]	FICI maximum [21]	FICI maximum [22]	FICI maximum [23]	FICI maximum [24]	FICI maximum [25]	FICI maximum [26]
CC1(C)S[C@@H]2[C@H](NC(=O)[C@H](N)c3ccc(O)cc3)C(=O)N2[C@H]1C(=O)O [amoxicillin] + CCC(C)n1ncn(-c2ccc(N3CCN(c4ccc(OCC5COC(Cn6cncn6)(c6ccc(Cl)cc6Cl)O5)cc4)CC3)cc2)c1=O [itraconazole]	0.394	-3.04	3	3.78	0.313	-0.629	0.79	-0.894	0.234	0.613	-0.787	0.212	1.01	1.01	0.75	1.25	0.375	1.25	1.25	2.25	1.25	1.25	1.25	1.25	2.12	1.25
CC1(C)S[C@@H]2[C@H](NC(=O)[C@H](N)c3ccc(O)cc3)C(=O)N2[C@H]1C(=O)O [amoxicillin] + C[C@@H]1[C@H](O)[C@@H](C)/C=C/C=C/C=C/C=C/C=C/C=C/C=C/[C@H](O[C@@H]2O[C@H](C)[C@@H](O)[C@H](N)[C@@H]2O)C[C@@H]2O[C@](O)(C[C@@H](O)C[C@@H](O)[C@H](O)CC[C@@H](O)C[C@@H](O)CC(=O)O[C@H]1C)C[C@H](O)[C@H]2C(=O)O [amphotericin B]	-2.25	-2.91	1.9	2.12	-0.462	0.631	2.34	2.19	-2.26	0.295	-0.244	2.97	0.508	1.01	8.78	1.25	1.25	1.25	1.25	1.25	1.25	1.25	1.25	1.25	4.25	1.25
CN(Cc1cnc2nc(N)nc(N)c2n1)c1ccc(C(=O)N[C@@H](CCC(=O)O)C(=O)O)cc1 [methotrexate] + CCC(C)n1ncn(-c2ccc(N3CCN(c4ccc(OCC5COC(Cn6cncn6)(c6ccc(Cl)cc6Cl)O5)cc4)CC3)cc2)c1=O [itraconazole]	1.01	0.35	-0.688	2.18	-0.495	-1.18	0.179	-0.777	1.41	-0.71	1.34	-0.796	0.505	1.08	1.08	1.16	1.16	1.16	1.16	2.16	2.04	2.16	1.08	2.04	1.16	1.16
CN(Cc1cnc2nc(N)nc(N)c2n1)c1ccc(C(=O)N[C@@H](CCC(=O)O)C(=O)O)cc1 [methotrexate] + C[C@@H]1[C@H](O)[C@@H](C)/C=C/C=C/C=C/C=C/C=C/C=C/C=C/[C@H](O[C@@H]2O[C@H](C)[C@@H](O)[C@H](N)[C@@H]2O)C[C@@H]2O[C@](O)(C[C@@H](O)C[C@@H](O)[C@H](O)CC[C@@H](O)C[C@@H](O)CC(=O)O[C@H]1C)C[C@H](O)[C@H]2C(=O)O [amphotericin B]	-1.12	-2.39	1.26	-0.0967	0.0762	-0.569	-2.52	-1.71	0.262	2	-3.15	0.225	2	1	2.16	1.16	1.08	1.16	1.16	1.16	1.16	2.16	1.5	1.16	1.16	1.16
CN(Cc1cnc2nc(N)nc(N)c2n1)c1ccc(C(=O)N[C@@H](CCC(=O)O)C(=O)O)cc1 [methotrexate] + OC(Cn1cncn1)(Cn1cncn1)c1ccc(F)cc1F [fluconazole]	8.35	-0.857	1.94	0.394	0.22	-1.36	0.272	-0.819	-0.754	-0.0461	-4.52	-1.86	1	1.01	1.04	1.16	0.656	1.16	1.16	2.16	1.16	2.16	1.08	2	2.16	1.08
